From patent US20240150365A1 (Hotspot Therapeutics, Inc., priority 2022, published 2024)

Legend:
MALT1 = target: T1, MALT1 (Homo sapiens, UniProt Q9UDY8); assay: MALT-1 Fluorogenic Peptide Cleavage Assay (MALT1 inhibition assay); format: biochemical; conditions: Avi-tagged FL MALT-1, Ac-LRSR-AMC peptide substrate, 30 min pre-incubation, 90 min reaction
T1 construct: Avi-tagged FL MALT-1 (Pharmaron, stored at −70° C.); Avi tag
T1 sequence (Q9UDY8 1-824): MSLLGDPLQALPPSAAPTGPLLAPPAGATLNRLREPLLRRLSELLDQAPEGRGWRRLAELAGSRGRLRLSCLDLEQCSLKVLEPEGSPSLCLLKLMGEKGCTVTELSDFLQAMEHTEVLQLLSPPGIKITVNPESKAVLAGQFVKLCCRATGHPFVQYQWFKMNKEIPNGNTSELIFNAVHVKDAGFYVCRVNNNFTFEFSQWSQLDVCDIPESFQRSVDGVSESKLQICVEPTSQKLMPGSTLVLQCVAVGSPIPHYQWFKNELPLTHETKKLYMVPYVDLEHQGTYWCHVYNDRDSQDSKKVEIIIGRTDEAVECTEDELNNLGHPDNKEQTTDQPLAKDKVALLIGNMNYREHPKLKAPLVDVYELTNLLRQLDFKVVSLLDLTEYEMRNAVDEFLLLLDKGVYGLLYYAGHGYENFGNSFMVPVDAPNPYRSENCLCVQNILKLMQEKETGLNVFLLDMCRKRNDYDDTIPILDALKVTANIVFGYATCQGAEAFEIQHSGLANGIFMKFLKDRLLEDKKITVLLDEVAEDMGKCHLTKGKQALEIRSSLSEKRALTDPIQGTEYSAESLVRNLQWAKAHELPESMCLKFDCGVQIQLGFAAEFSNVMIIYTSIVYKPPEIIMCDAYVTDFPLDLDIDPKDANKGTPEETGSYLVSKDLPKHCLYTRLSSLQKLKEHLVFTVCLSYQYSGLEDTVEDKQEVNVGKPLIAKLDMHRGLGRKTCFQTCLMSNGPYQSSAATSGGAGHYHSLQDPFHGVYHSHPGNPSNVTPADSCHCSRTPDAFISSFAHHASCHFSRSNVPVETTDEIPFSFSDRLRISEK
Outline: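 IC50 from sigmoidal fits of % inhibition, with fluorescence (ex 342, em 441 nm) from AMC released from the quenched LRSR peptide after 90 min at room temperature. Full-length Avi-tagged MALT1 saw compound for 30 min first; final DMSO 2%.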

NF-kB = NF-kB reporter assay in Jurkat cells stimulated with aCD3/aCD28/PMA; format: cell-based; conditions: Homo sapiens, Jurkat, Jurkat cells, 1 hr compound incubation, aCD3/aCD28/PMA stimulation 4 hr, One-Glo readout; read-out: NF-kB Reporter Assay IC50
Outline: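 Stimulation used final aCD3 5 μg/mL, aCD28 5 μg/mL and PMA 0.03 μg/mL for 4 hr at 37° C, after 1 hr compound pretreatment of 25,000 serum-starved Jurkat cells per well. One-Glo luminescence gave IC50 values.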

IC50 (MALT1) [nM]	IC50 (NF-kB) [nM]	SMILES
> 2500	> 2500	Cn1cc(-c2ccc(S(=O)(=O)Nc3cccc4cnn(C)c34)cn2)ccc1=O [Example I-112, 1′-Methyl-N-(1-Methyl-1H-Indazol-7-yl)-6′-Oxo-1′,6′-Dihydro-[2,3′-Bipyridine]-5-Sulfonamide]
> 2500	> 2500	Cn1nnc2cccc(NS(=O)(=O)c3ccc(-n4cc(C(F)(F)F)cn4)nc3)c21 [Example I-64, N-(1-Methyl-1H-Benzo[D][1,2,3]Triazol-7-yl)-6-(4-(Trifluoromethyl)-1H-Pyrazol-1-yl)Pyridine-3-Sulfonamide]
> 2500	400 to 1000	Cn1ncc2cccc(NS(=O)(=O)c3ccc(-c4cnn(C5COC5)c4)nc3)c21 [Example I-253, N-(1-methyl-1H-indazol-7-yl)-6-(1-(oxetan-3-yl)-1H-pyrazol-4-yl)pyridine-3-sulfonamide]
> 2500	< 400	Cn1ncc2cccc(NS(=O)(=O)c3ccc(-c4cnn5c4CCC5)nc3)c21 [Example I-269, 6-(5,6-dihydro-4H-pyrrolo[1,2-b]pyrazol-3-yl)-N-(1-methyl-1H-indazol-7-yl)pyridine-3-sulfonamide]
< 400	< 400	COc1ccc2cnn(C)c2c1NS(=O)(=O)c1ccc(-n2cnc(C(F)(F)F)c2)nc1 [Example I-286, N-(6-methoxy-1-methylindazol-7-yl)-6-[4-(trifluoromethyl)imidazol-1-yl]pyridine-3-sulfonamide]
< 400	< 400	COc1ccc2cnn(C)c2c1N(C)S(=O)(=O)c1ccc(-c2cc(C(F)(F)F)nn2C)nc1 [Example I-104, N-(6-Methoxy-1-Methyl-1H-Indazol-7-yl)-N-Methyl-6-(1-Methyl-3-(Trifluoromethyl)-1H-Pyrazol-5-yl)Pyridine-3-Sulfonamide]
1000 to 2500	400 to 1000	COc1ccc2cnn(C)c2c1NS(=O)(=O)c1ccc(-c2cnc3n2CCOC3)nc1 [Example I-312, 6-(5,6-dihydro-8H-imidazo[2,1-c][1,4]oxazin-3-yl)-N-(6-methoxy-1-methyl-1H-indazol-7-yl)pyridine-3-sulfonamide]
< 400	< 400	[2H]C([2H])([2H])n1ncc2ccc(OC)c(NS(=O)(=O)c3ccc(-n4cc(Cl)cn4)nc3)c21 [Example I-212, 6-(4-Chloro-1H-Pyrazol-1-yl)-N-(6-Methoxy-1-(Methyl-D3)-1H-Indazol-7-yl)Pyridine-3-Sulfonamide]
> 2500	400 to 1000	CC(O)c1cnn(-c2ccc(S(=O)(=O)Nc3cccc4cnn(C)c34)cn2)c1 (stereo not shown) [Example I-282]
> 2500	> 2500	COCCn1ncc2cccc(NS(=O)(=O)c3ccc(-n4nccc4C(C)C)nc3)c21 [Example I-232, 6-(5-isopropyl-1H-pyrazol-1-yl)-N-(1-(2-methoxyethyl)-1H-indazol-7-yl)pyridine-3-sulfonamide]
< 400	< 400	COc1ccc2cnn(C)c2c1NS(=O)(=O)c1ccc(-n2nccc2OC)nc1 [Example I-151, N-(6-Methoxy-1-Methyl-1H-Indazol-7-yl)-6-(5-Methoxy-1H-Pyrazol-1-yl)Pyridine-3-Sulfonamide]

Second part, the compound before the results:

SMILES	IC50 (MALT1) [nM]	IC50 (NF-kB) [nM]
Cc1nn(C2COC2)cc1-c1ccc(S(=O)(=O)Nc2cccc3cnn(C)c23)cn1 [Example I-275]	> 2500	400 to 1000
[2H]C([2H])([2H])Oc1ccc2cnn(C)c2c1NS(=O)(=O)c1ccc(-n2cc(Cl)cn2)nc1 [Example I-213, 6-(4-Chloro-1H-Pyrazol-1-yl)-N-(6-(Methoxy-D3)-1-Methyl-1H-Indazol-7-yl)Pyridine-3-Sulfonamide]	< 400	< 400
COc1ccc2cnn(C)c2c1NS(=O)(=O)c1ccc(N2CCOC2=O)nc1 [Example I-222, N-(6-Methoxy-1-Methyl-1H-Indazol-7-yl)-6-(2-Oxooxazolidin-3-yl)Pyridine-3-Sulfonamide]	> 2500	< 400
Cn1ncc2cccc(NS(=O)(=O)c3ccc(-n4cc(F)cn4)nc3)c21 [Example I-38, 6-(4-Fluoro-1H-Pyrazol-1-yl)-N-(1-Methyl-1H-Indazol-7-yl) Pyridine-3-Sulfonamide]	1000 to 2500	< 400
COc1ccc2cn[nH]c2c1NS(=O)(=O)c1ccc(-n2cc(C(F)(F)F)cn2)nc1 [Example I-175, N-(6-methoxy-1H-indazol-7-yl)-6-(4-(trifluoromethyl)-1H-pyrazol-1-yl)pyridine-3-sulfonamide]	< 400	< 400
CC(C)c1ccn(-c2ccc(S(=O)(=O)Nc3cccc4cnn(C)c34)cn2)n1 [Example I-36, 6-(3-Isopropyl-1H-Pyrazol-1-yl)-N-(1-Methyl-1H-Indazol-7-yl)Pyridine-3-Sulfonamide]	> 2500	< 400
COc1ccc2cnn(C)c2c1NS(=O)(=O)c1ccc(-n2cc(CO)cn2)nc1 [Example I-284, 6-[4-(hydroxymethyl)pyrazol-1-yl]-N-(6-methoxy-1-methylindazol-7-yl)pyridine-3-sulfonamide]	400 to 1000	< 400
Cn1ncc2cccc(NS(=O)(=O)c3ccc(-c4cnc(C(F)(F)F)s4)nc3)c21 [Example I-214, N-(1-Methyl-1H-Indazol-7-yl)-6-(2-(Trifluoromethyl)Thiazol-5-yl)Pyridine-3-Sulfonamide]	400 to 1000	< 400
COc1ncc2cnn(C)c2c1NS(=O)(=O)c1ccc(-n2ccc(C)n2)nc1 [Example I-197, N-{6-methoxy-1-methylpyrazolo[4,3-c]pyridin-7-yl}-6-(3-methylpyrazol-1-yl)pyridine-3-sulfonamide]	< 400	< 400
Cc1cc(C)n(-c2ccc(S(=O)(=O)Nc3cccc4cnn(C)c34)cn2)n1 [Example I-40, 6-(3,5-Dimethyl-1H-Pyrazol-1-yl)-N-(1-Methyl-1H-Indazol-7-yl)Pyridine-3-Sulfonamide]	> 2500	< 400
COc1ncc2cnn(C)c2c1NS(=O)(=O)c1ccc(-c2cnn3c2OCCC3)nc1 [Example I-299]	> 2500	> 2500
CN(C)c1ccc(-c2ccc(S(=O)(=O)Nc3cccc4cnn(C)c34)cn2)cn1 [Example I-110, 6′-(Dimethylamino)-N-(1-Methyl-1H-Indazol-7-yl)-[2,3′-Bipyridine]-5-Sulfonamide]	> 2500	< 400
CN1CCN(c2ccc(S(=O)(=O)Nc3cccc4cnn(C)c34)cn2)C1=O [Example I-226, N-(1-Methyl-1H-Indazol-7-yl)-6-(3-Methyl-2-Oxoimidazolidin-1-yl)Pyridine-3-Sulfonamide]	> 2500	< 400
COc1ccc2cnn(C)c2c1NS(=O)(=O)c1ccc(-n2cc(C)[nH]c2=O)nc1 [Example I-237, N-(6-methoxy-1-methyl-1H-indazol-7-yl)-6-(4-methyl-2-oxo-2,3-dihydro-1H-imidazol-1-yl)pyridine-3-sulfonamide]	< 400	< 400
Cn1ncc2cccc(NS(=O)(=O)c3ccc(-c4cnn(CCO)c4)nc3)c21 [Example I-146, 6-(1-(2-Hydroxyethyl)-1H-Pyrazol-4-yl)-N-(1-Methyl-1H-Indazol-7-yl)Pyridine-3-Sulfonamide]	> 2500	> 2500
Cc1cc(C(F)(F)F)nn1-c1ccc(S(=O)(=O)Nc2cccc3cnn(C)c23)cn1 [Example I-43, 6-[5-Methyl-3-(Trifluoromethyl)Pyrazol-1-Yl]-N-(1-Methylindazol-7-yl)Pyridine-3-Sulfonamide]	1000 to 2500	< 400
Cn1ncc2cccc(NS(=O)(=O)c3ccc(-c4ccc(O)nc4)nc3)c21 [Example I-136, 6′-Hydroxy-N-(1-Methyl-1H-Indazol-7-yl)-[2,3′-Bipyridine]-5-Sulfonamide]	> 2500	> 2500
COc1ccc2cn(C)nc2c1NS(=O)(=O)c1ccc(-n2cc(C(F)(F)F)cn2)nc1 [Example I-27, N-(6-Methoxy-2-Methylindazol-7-yl)-6-[4-(Trifluoromethyl)Pyrazol-1-yl]pyridine-3-Sulfonamide]	< 400	1000 to 2500
